How the values were obtained:
KASUMI-1 cells = assay: Kasumi cell proliferation CTG; assay type: cell-based; conditions: Homo sapiens, Kasumi 1, 120 h, treated for 120 hours, CellTiter-Glo
Experimental: Cell culture: KASUMI-1 cells (ACC20, Leibniz-Institut DSMZ Deutsche Sammlung von Mikroorganismen und Zellkulturen GmbH) were grown in RPMI 1640 (31870-025, Gibco) supplemented with 20% fetal bovine serum (F1524, Gibco), 1 mM sodium pyruvate (11360-039, Gibco) and 2 mM Glutamax (35050-038, Gibco) in a 5% CO2 humidified incubator at 37° C.
Cell treatment and cell growth assessment: KASUMI-1 cells were seeded in ultra-low attachment 384-well culture plate (MS-9384WZ, SBio) at a final concentration of 250 000 cells/ml (35 μL/well) and treated for 120 hours with compounds inhibiting the METTL3/14 activity (10 serial semi-log dilutions, 30 μM as top concentration). Upon treatment, Kasumi1 cells were incubated for 10 min at RT with the CellTiter-Glo reagent (G7571, Promega). Measurement of the luminescence signal was performed on a microplate reader (Ensight, PerkinElmer).

METTL3/14 = METTL3/14 (Homo sapiens (Human), UniProt Q86U44); assay: METTL3/14 methyltransferase assay (RapidFire mass spectrometry, RFMS); assay type: biochemical; conditions: 5 nM METTL3/14, 0.2 μM RNA substrate, 0.5 μM SAM, 60 minutes at room temperature
Chain of METTL3/14 (Q86U44 whole entry): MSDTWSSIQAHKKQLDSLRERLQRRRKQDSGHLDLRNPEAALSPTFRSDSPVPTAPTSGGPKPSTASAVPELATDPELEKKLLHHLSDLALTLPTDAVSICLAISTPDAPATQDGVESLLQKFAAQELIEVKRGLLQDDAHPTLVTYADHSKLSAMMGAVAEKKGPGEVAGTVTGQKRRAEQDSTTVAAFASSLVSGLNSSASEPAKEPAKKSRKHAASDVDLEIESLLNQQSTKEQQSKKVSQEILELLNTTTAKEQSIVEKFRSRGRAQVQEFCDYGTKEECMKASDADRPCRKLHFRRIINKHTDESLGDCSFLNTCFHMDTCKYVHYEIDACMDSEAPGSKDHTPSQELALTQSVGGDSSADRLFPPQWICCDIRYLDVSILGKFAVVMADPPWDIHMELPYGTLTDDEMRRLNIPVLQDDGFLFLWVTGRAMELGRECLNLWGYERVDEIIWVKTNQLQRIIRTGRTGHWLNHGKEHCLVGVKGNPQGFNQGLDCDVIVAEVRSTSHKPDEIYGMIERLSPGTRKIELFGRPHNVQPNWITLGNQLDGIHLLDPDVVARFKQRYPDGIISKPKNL
Chain of METTL3/14 (Q9HCE5 whole entry partner): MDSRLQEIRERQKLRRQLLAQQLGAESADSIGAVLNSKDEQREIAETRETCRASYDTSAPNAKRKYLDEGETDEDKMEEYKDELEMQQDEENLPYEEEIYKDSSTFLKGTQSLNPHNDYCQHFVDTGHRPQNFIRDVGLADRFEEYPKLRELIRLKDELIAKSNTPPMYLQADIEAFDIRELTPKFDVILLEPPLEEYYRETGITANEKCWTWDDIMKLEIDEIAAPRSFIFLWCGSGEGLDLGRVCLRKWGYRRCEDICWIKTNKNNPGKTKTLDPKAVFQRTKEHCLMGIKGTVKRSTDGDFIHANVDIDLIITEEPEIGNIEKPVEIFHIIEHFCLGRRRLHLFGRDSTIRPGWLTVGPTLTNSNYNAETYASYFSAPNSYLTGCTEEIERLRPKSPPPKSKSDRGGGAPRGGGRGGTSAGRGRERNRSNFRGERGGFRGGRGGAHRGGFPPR
Experimental: The enzymatic assay was established to determine IC50 values for inhibition of RNA methyltransferase activity. The enzyme used was full-length his-tagged METTL3 co-expressed with full length FLAG-tagged METTL14 in a baculovirus expression system. Enzymatic reactions were performed at room temperature in 384-well plates using a final reaction volume of 20 μL containing 20 mM TrisCl pH 7.6, 1 mM DTT, 0.01% Tween-20. 5 nM final concentration of METTL3/14 was pre-incubated with various compound concentrations for 10 minutes, followed by addition of 0.2 μM final concentration synthetic RNA substrate (5′P-[…]-3′) and 0.5 μM final concentration S-adenosyl-methionine (SAM). The reaction was incubated for a further 60 minutes at room temperature, and then quenched by the addition of 40 μL 7.5% TCA with two internal product standards (D4-SAH and 13C10-SAH). After termination, plates were sealed, centrifuged and stored at 4° C. until analysis.
RNA methyltransferase activity was measured label free using the RapidFire™ mass spectrometry (RF/MS) platform. Stopped and stable assay plates were analyzed on the Agilent RF300 integrated autosampler/solid-phase extraction (SPE) system coupled to an ABSciex 4000 mass spectrometer for the generation of the product S-adenosyl homocysteine (SAH) and normalized to the ratio of signal of the two internal product standards, respectively. Solvent A was water containing 0.1% (v/v) TCA. Solvent B was acetonitrile/0.1% ammonium acetate (8:2, v/v). More specifically, plates were centrifuged at 4350 rpm for 10 min, samples were aspirated under vacuum for 600 ms, then loaded onto a C18 solid-phase extraction cartridge and washed for 3 s with solvent A at a flow rate of 1.5 mL/min. Retained product and internal standards were eluted with solvent B at a flow rate of 1 mL/min for 3 s and finally the cartridge was re-equilibrated with solvent A for 500 ms. The mass transition for the product (SAH) was 384.9/135.9 Da. Transitions of the two internal product standards (IS1: D4-SAH and IS2: 13C10-SAH) were 389.1/135.8 Da and 395.0/134.2 Da, respectively. Ratios of SAH/IS1 and SAH/IS2 were used for normalization of matrix effects. IC50 values were calculated based on dilution series of individual compounds. Potency of a compound was measured at varied inhibitor concentrations and normalized to control wells without RNA substrate and without inhibition (DMSO only).

Caov-3 cells = assay: Caov3 cell proliferation CTG; assay type: cell-based; conditions: Homo sapiens, treated for 120 hours, CellTiter-Glo
Experimental: Cell treatment and cell growth assessment: 18 hours post-seeding in white 384-Viewplate (6007480, PerkinElmer) at 1500 cells/well, Caov3 cells were treated for 120 hours with compounds inhibiting the METTL3/14 activity (10 serial semi-log dilutions, 30 μM as top concentration). Upon treatment, Coav-3 cells were incubated for 10 min at RT with the CellTiter-Glo reagent (G7571, Promega). Measurement of the luminescence signal was performed on a microplate reader (Ensight, PerkinElmer).

Compound: Nc1ncnc2c1c(F)cn2[C@@H]1C[C@H](c2ccc3cc(CNCC45CC(F)(C4)C5)[nH]c3c2)[C@@H](O)[C@H]1O [Example 29, (1R,2S,3R,5R)-3-{4-amino-5-fluoro-7H-pyrrolo[2,3-d]pyrimidin-7-yl}-5-(2-{[{{3-fluorobicyclo[1.1.1]pentan-1-yl}methyl)amino]methyl}-1H-indol-6-yl)cyclopentane-1,2-diol]
- IC50 (KASUMI-1 cells): 2850 nM
- IC50 (METTL3/14): 6.1 nM
- IC50 (Caov-3 cells): 1540 nM

Compound: Nc1ncnc2c1c(Cl)cn2[C@@H]1C[C@H](c2ccc3cc(CNCC45CC(F)(C4)C5)[nH]c3c2)[C@@H](O)[C@H]1O [Example 30, (1R,2S,3R,5R)-3-{4-amino-5-chloro-7H-pyrrolo[2,3-d]pyrimidin-7-yl}-5-(2-{[({3-fluorobicyclo[1.1.1]pentan-1-yl}methyl)amino]methyl}-1H-indol-6-yl)cyclopentane-1,2-diol]
- IC50 (KASUMI-1 cells): 1290 nM
- IC50 (METTL3/14): 6.1 nM
- IC50 (Caov-3 cells): 556 nM

Compound: Nc1ncnc2c1c(Br)cn2[C@@H]1C[C@H](c2ccc3[nH]c(CNCC45CC(F)(C4)C5)cc3c2)[C@@H](O)[C@H]1O [Example 31, (1R,2S,3R,5R)-3-{4-amino-5-bromo-7H-pyrrolo[2,3-d]pyrimidin-7-yl}-5-(2-{[{{3-fluorobicyclo[1.1.1]pentan-1-yl}methyl)amino]methyl}-1H-indol-5-yl)cyclopentane-1,2-diol]
- IC50 (KASUMI-1 cells): 1930 nM
- IC50 (METTL3/14): 8.24 nM
- IC50 (Caov-3 cells): 2650 nM

Compound: Nc1ncnc2c1c(Br)cn2[C@@H]1C[C@H](c2ccc3cc(CN4CCC5(CCC5)C4)[nH]c3c2)[C@@H](O)[C@H]1O [Example 32, (1R,2S,3R,5R)-3-{4-amino-5-bromo-7H-pyrrolo[2,3-d]pyrimidin-7-yl}-5-[2-({6-azaspiro[3.4]octan-6-yl}methyl)-1H-indol-6-yl]cyclopentane-1,2-diol]
- IC50 (KASUMI-1 cells): 1220 nM
- IC50 (METTL3/14): 6.1 nM
- IC50 (Caov-3 cells): 551 nM

Compound: Nc1ncnc2c1ccn2[C@@H]1C[C@H](c2ccc3cc(CN4CCC5(CCC5)C4)[nH]c3c2)[C@@H](O)[C@H]1O [Example 33, (1R,2S,3R,5R)-3-{4-amino-7H-pyrrolo[2,3-d]pyrimidin-7-yl}-5-[2-({6-azaspiro[3.4]octan-6-yl}methyl)-1H-indol-6-yl]cyclopentane-1,2-diol]
- IC50 (KASUMI-1 cells): 1390 nM
- IC50 (METTL3/14): 6.22 nM
- IC50 (Caov-3 cells): 276 nM

Compound: Nc1ncnc2c1c(Br)cn2[C@@H]1C[C@H](c2ccc(CNCC34CC(F)(C3)C4)cc2)[C@@H](O)[C@H]1O [Example 34, (1R,2S,3R,5R)-3-{4-amino-5-bromo-7H-pyrrolo[2,3-d]pyrimidin-7-yl}-5-(4-{[({3-fluorobicyclo[1.1.1]pentan-1-yl}methyl)amino]methyl}phenyl)cyclopentane-1,2-diol]
- IC50 (KASUMI-1 cells): 2390 nM
- IC50 (METTL3/14): 9.11 nM
- IC50 (Caov-3 cells): 1880 nM

Compound: Nc1ncnc2c1c(Br)cn2[C@@H]1C[C@H](c2ccc(CN3CCC4(CCC4)C3)cc2)[C@@H](O)[C@H]1O [Example 35, (1R,2S,3R,5R)-3-{4-amino-5-bromo-7H-pyrrolo[2,3-d]pyrimidin-7-yl}-5-[4-({6-azaspiro[3.4]octan-6-yl}methyl)phenyl]cyclopentane-1,2-diol]
- IC50 (KASUMI-1 cells): 4160 nM
- IC50 (METTL3/14): 63.7 nM
- IC50 (Caov-3 cells): 4560 nM

Compound: CC1(C)CCN(Cc2ccc([C@H]3C[C@@H](n4cc(Br)c5c(N)ncnc54)[C@H](O)[C@@H]3O)cc2)CC1 [Example 36, (1R,2S,3R,5R)-3-{4-amino-5-bromo-7H-pyrrolo[2,3-d]pyrimidin-7-yl}-5-{4-[(4,4-dimethylpiperidin-1-yl)methyl]phenyl}cyclopentane-1,2-diol]
- IC50 (KASUMI-1 cells): 5270 nM
- IC50 (METTL3/14): 103 nM
- IC50 (Caov-3 cells): 7750 nM

Compound: Nc1ncnc2c1c(Br)cn2[C@@H]1C[C@H](c2cccc(CCNCC34CC(F)(C3)C4)c2)[C@@H](O)[C@H]1O [Example 37, (1R,2S,3R,5R)-3-{4-amino-5-bromo-7H-pyrrolo[2,3-d]pyrimidin-7-yl}-5-(3-{2-[{{3-fluorobicyclo[1.1.1]pentan-1-yl}methyl)amino]ethyl}phenyl)cyclopentane-1,2-diol]
- IC50 (KASUMI-1 cells): 2140 nM
- IC50 (METTL3/14): 117 nM
- IC50 (Caov-3 cells): 3260 nM

Compound: Nc1ncnc2c1c(Br)cn2[C@@H]1C[C@H](c2cccc(CN3CCC4(CCC4)C3)c2)[C@@H](O)[C@H]1O [Example 38, (1R,2S,3R,5R)-3-{4-amino-5-bromo-7H-pyrrolo[2,3-d]pyrimidin-7-yl}-5-[3-({6-azaspiro[3.4]octan-6-yl}methyl)phenyl]cyclopentane-1,2-diol]
- IC50 (KASUMI-1 cells): 2950 nM
- IC50 (METTL3/14): 2640 nM
- IC50 (Caov-3 cells): 6760 nM

Compound: Nc1ncnc2c1c(Br)cn2[C@@H]1C[C@H](c2cccc(CNCC34CC(F)(C3)C4)c2)[C@@H](O)[C@H]1O [Example 39, (1R,2S,3R,5R)-3-{4-amino-5-bromo-7H-pyrrolo[2,3-d]pyrimidin-7-yl}-5-(3-{[{{3-fluorobicyclo[1.1.1]pentan-1-yl}methyl)amino]methyl}phenyl)cyclopentane-1,2-diol]
- IC50 (KASUMI-1 cells): 2390 nM
- IC50 (METTL3/14): 3010 nM
- IC50 (Caov-3 cells): 4640 nM
